Measured values published in ChEMBL document CHEMBL4400531, “Structure-Based Design of N-(5-Phenylthiazol-2-yl)acrylamides as Novel and Potent Glutathione S-Transferase Omega 1 Inhibitors” (J Med Chem, 2019).

Legend:
[1] = molecular target: T1, Glutathione S-transferase omega-1 (Homo sapiens, UniProt P78417); assay: Inhibition of CMFDA binding to human N-terminal 6x-His-tagged GSTO1-1 preincubated for 30 mins followed by CMFDA addition and measured after 30 mins by in-gel fluorescence binding assay
T1 sequence (P78417 whole entry): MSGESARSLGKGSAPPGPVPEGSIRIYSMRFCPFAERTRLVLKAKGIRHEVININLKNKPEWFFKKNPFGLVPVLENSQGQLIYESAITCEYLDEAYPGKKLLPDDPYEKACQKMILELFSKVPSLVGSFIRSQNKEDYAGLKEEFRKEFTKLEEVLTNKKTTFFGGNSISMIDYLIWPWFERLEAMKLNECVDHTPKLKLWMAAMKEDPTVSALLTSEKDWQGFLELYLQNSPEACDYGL

HCT-116 = assay: cells; settings: Homo sapiens, HCT-116, 72 h
Description: Antiproliferative activity against human HCT116 cells after 72 hrs by MTT assay

HT-29 = assay: cells; settings: Homo sapiens, HT-29, 72 h
[2] = Metabolic stability in mouse liver microsomes at 1 uM in presence of NADPH incubated for 0 mins by LC-MS/MS analysis; assay type: ADME, Microsome; settings: read-out: Stability
[3] = Metabolic stability in human liver microsomes at 1 uM in presence of NADPH incubated for 0 mins by LC-MS/MS analysis; assay type: ADME, Microsome; settings: read-out: Stability
[4] = Stability of the compound in 20% acetonitrile/PBS buffer at room temperature by LC-MS/MS analysis; assay type: physicochemical
[5] = Metabolic stability in mouse liver microsomes at 1 uM in presence of NADPH incubated for 5 mins by LC-MS/MS analysis; assay type: ADME, Microsome; settings: read-out: Stability
[6] = Metabolic stability in mouse liver microsomes at 1 uM in presence of NADPH incubated for 10 mins by LC-MS/MS analysis; assay type: ADME, Microsome; settings: read-out: Stability
[7] = Metabolic stability in mouse liver microsomes at 1 uM in presence of NADPH incubated for 15 mins by LC-MS/MS analysis; assay type: ADME, Microsome; settings: read-out: Stability
[8] = Metabolic stability in mouse liver microsomes at 1 uM in presence of NADPH incubated for 30 mins by LC-MS/MS analysis; assay type: ADME, Microsome; settings: read-out: Stability
[9] = Metabolic stability in mouse liver microsomes at 1 uM in presence of NADPH incubated for 45 mins by LC-MS/MS analysis; assay type: ADME, Microsome; settings: read-out: Stability
[10] = Metabolic stability in mouse liver microsomes at 1 uM in presence of NADPH incubated for 60 mins by LC-MS/MS analysis; assay type: ADME, Microsome; settings: read-out: Stability
[11] = Half life in mouse liver microsomes at 1 uM in presence of NADPH by LC-MS/MS analysis; assay type: ADME, Microsome
[12] = Metabolic stability in human liver microsomes at 1 uM in presence of NADPH incubated for 5 mins by LC-MS/MS analysis; assay type: ADME, Microsome; settings: read-out: Stability
[13] = Metabolic stability in human liver microsomes at 1 uM in presence of NADPH incubated for 10 mins by LC-MS/MS analysis; assay type: ADME, Microsome; settings: read-out: Stability
[14] = Metabolic stability in human liver microsomes at 1 uM in presence of NADPH incubated for 15 mins by LC-MS/MS analysis; assay type: ADME, Microsome; settings: read-out: Stability
[15] = Metabolic stability in human liver microsomes at 1 uM in presence of NADPH incubated for 30 mins by LC-MS/MS analysis; assay type: ADME, Microsome; settings: read-out: Stability
[16] = Metabolic stability in human liver microsomes at 1 uM in presence of NADPH incubated for 45 mins by LC-MS/MS analysis; assay type: ADME, Microsome; settings: read-out: Stability
[17] = Metabolic stability in human liver microsomes at 1 uM in presence of NADPH incubated for 60 mins by LC-MS/MS analysis; assay type: ADME, Microsome; settings: read-out: Stability
[18] = Half life in human liver microsomes at 1 uM in presence of NADPH by LC-MS/MS analysis; assay type: ADME, Microsome

Structure (SMILES): C=CC(=O)N1CCC(c2ccccc2)CC1
- IC50 [1]: > 10 µM
- IC50 (HCT-116): > 30 µM
- IC50 (HT-29): > 30 µM

Structure (SMILES): C=CC(=O)Nc1nc(-c2ccc(O)cc2)cs1
- IC50 [1]: > 10 µM
- IC50 (HCT-116): 7.1 to 12.5 µM
- IC50 (HT-29): 6.1 to 13.5 µM

Structure (SMILES): C=CC(=O)N(Cc1cc(C)no1)c1nc(-c2ccccc2O)cs1
- remaining at 0 h, 1 µM [2]: 100%
- remaining at 0 h, 1 µM [3]: 100%
- Stability [4]: Stable
- remaining at 5 min, 1 µM [5]: 16%
- remaining at 10 min, 1 µM [6]: 12%
- remaining at […], 1 µM [7]: 12%
- remaining at 0.5 h, 1 µM [8]: 8%
- remaining at 0.75 h, 1 µM [9]: 4%
- remaining at 1 h, 1 µM [10]: 4%
- t1/2 [11]: 1.81 min
- remaining at 5 min, 1 µM [12]: 14.8%
- remaining at 10 min, 1 µM [13]: 7.41%
- remaining at […], 1 µM [14]: 3.7%
- remaining at 0.5 h, 1 µM [15]: 3.7%
- remaining at 0.75 h, 1 µM [16]: 3.7%
- remaining at 1 h, 1 µM [17]: 3.7%
- t1/2 [18]: 1.89 min

Structure (SMILES): C=CC(=O)Nc1nc(-c2ccc(Cl)cc2)cs1
- Stability [4]: Stable
- t1/2 [11]: 3.21 min
- t1/2 [18]: 9.52 min

Structure (SMILES): C=CC(=O)Nc1cnn(Cc2ccccc2)c1
- IC50 [1]: > 10 µM
- IC50 (HCT-116): > 30 µM
- IC50 (HT-29): > 30 µM

Structure (SMILES): C=CC(=O)Nc1nc(-c2ccccc2OC)cs1
- IC50 [1]: > 10 µM
- IC50 (HCT-116): > 30 µM
- IC50 (HT-29): > 30 µM

Structure (SMILES): C=CC(=O)Nc1cnn(-c2ccccc2)c1
- IC50 [1]: > 10 µM
- IC50 (HCT-116): > 30 µM
- IC50 (HT-29): > 30 µM

Structure (SMILES): C=CC(=O)N1CCC(Cc2ccccc2)CC1
- IC50 [1]: > 10 µM
- IC50 (HCT-116): > 30 µM
- IC50 (HT-29): > 30 µM

Structure (SMILES): COC(=O)/C=C/CNc1ccc(Cl)c(S(=O)(=O)N(C)C)c1
- IC50 [1]: > 10 µM
- IC50 (HCT-116): > 30 µM
- IC50 (HT-29): > 30 µM
